What was measured:
[1] = tested on: A/Wuhan/359/95 (H3N2); assay: microbe, parasite or virus in culture; assay type: cell-based; details: Influenza A virus, H3N2, MDCK, read-out: IC50 (nM of Zanamivir)
[2] = tested on: A/turkey/MN/833/80 (H4N2); assay: microbe, parasite or virus in culture; assay type: cell-based; details: Influenza A virus, H4N2, MDCK, read-out: IC50 (nM of Zanamivir)

CC(=O)N[C@H]1[C@H]([C@H](O)[C@H](O)CO)OC(C(=O)O)=C[C@@H]1N=C(N)N [compound 1, Zanamivir]
IC50 [1]: 23000 nM
IC50 [2]: 21000 nM
